Biological target: canine TRPM8 (Canis lupus familiaris, UniProt Q1A7N1)
Experiment: In Vitro Canine TRPM8 Functional Assay (Ca2+ fluorescence, icilin activation)
Format: cell-based
Settings: for IC50: HEK293 cells stably expressing canine TRPM8, icilin activation, eight-point dose-response, read-out: IC50; for inhibition at 0.2 µM / % Inh @ 0.2 (μM): compound at 0.2 μM, canine TRPM8, icilin activation; for inhibition at 0.2 µM: read-out: % Inh @ 0.2
In short: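 HEK293 cells stably expressing canine TRPM8 loaded with Calcium 3 dye; compound added and Ca2+ fluorescence monitored 5 min before icilin at a final level giving ~80% maximal response, read on FLIPR or FDSS. EC50 or IC50 from eight-point dose-response, quadruplicate wells per point.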

Sequence of canine TRPM8 (Q1A7N1 1-1104): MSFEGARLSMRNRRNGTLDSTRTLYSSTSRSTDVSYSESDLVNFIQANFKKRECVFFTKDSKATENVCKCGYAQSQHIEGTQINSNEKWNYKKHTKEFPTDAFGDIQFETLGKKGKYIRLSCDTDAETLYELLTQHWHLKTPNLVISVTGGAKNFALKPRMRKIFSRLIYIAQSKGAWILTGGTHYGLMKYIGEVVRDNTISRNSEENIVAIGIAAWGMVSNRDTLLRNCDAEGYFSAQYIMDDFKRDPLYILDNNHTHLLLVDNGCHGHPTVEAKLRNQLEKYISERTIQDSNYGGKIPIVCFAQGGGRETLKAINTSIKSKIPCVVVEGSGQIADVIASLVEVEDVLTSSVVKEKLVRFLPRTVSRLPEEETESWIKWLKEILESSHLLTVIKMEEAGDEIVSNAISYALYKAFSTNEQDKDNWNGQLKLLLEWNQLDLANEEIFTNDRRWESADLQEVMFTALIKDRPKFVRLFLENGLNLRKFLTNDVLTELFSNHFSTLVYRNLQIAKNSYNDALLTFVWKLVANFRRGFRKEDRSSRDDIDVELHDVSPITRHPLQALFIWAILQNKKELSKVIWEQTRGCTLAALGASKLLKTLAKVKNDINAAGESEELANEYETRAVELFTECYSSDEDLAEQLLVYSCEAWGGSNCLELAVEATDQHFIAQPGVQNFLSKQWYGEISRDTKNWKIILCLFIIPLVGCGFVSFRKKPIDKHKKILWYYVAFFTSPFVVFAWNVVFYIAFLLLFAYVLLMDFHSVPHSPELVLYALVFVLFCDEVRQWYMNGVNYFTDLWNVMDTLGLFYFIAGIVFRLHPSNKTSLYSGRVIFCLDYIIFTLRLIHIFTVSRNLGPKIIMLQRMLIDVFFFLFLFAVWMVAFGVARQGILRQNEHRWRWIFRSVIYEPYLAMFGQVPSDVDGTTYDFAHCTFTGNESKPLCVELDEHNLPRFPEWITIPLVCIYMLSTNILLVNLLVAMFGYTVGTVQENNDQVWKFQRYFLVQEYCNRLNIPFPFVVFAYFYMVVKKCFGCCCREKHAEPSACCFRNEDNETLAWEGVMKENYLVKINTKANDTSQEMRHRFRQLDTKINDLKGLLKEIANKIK

| IC50 | inhibition at 0.2 µM | Compound | % Inh @ 0.2 (μM) |
| --- | --- | --- | --- |
| 27 nM | 91% | Cc1c(N(CCCC(F)(F)F)S(=O)(=O)c2ccc(Oc3ccncc3)cc2)sc2ccccc12 [Compound 372, N-(3-Methyl-benzo[b]thiophen-2-yl)-N-(4,4,4-trifluoro-butyl)-4-(pyridin-4-yloxy)-benzenesulfonamide] | – |
| 4 nM | 89% | Cc1c(N(Cc2ccc(F)c(C(F)(F)F)c2)S(=O)(=O)c2ccc(C(C)(C)O)cc2)sc2ccccc12 [Compound 374, N-(3-Methyl-benzo[b]thiophen-2-yl)-N-(4-fluoro-3-trifluoromethyl-benzyl)-4-(1-hydroxy-1-methyl-ethyl)-benzenesulfonamide] | – |
| 26 nM | 85% | Cc1c(N(Cc2ccc(F)c(C(F)(F)F)c2)S(=O)(=O)c2cccc(C(=O)O)c2)sc2cc(F)ccc12 [Compound 376, N-(6-Fluoro-3-methyl-benzo[b]thiophen-2-yl)-N-(4-fluoro-3-trifluoromethyl-benzyl)-3-carboxy-benzenesulfonamide] | – |
| – | 54% | COC(=O)c1cccc(CN(c2cc3ccccc3s2)S(=O)(=O)c2cccnc2)c1 [Compound 379, N-(Benzo[b]thiophen-2-yl)-N-(3-carbomethoxy-benzyl)-pyridin-3-ylsulfonamide] | – |
| – | 24% | COC(=O)c1ccc(CN(c2cc3ccccc3s2)S(=O)(=O)c2cccnc2)cc1 [Compound 380, N-(Benzo[b]thiophen-2-yl)-N-(4-carbomethoxy-benzyl)-pyridin-3-ylsulfonamide] | – |
| – | 49% | O=S(=O)(c1cccnc1)N(CCCC(F)(F)F)c1cc2ccccc2s1 [Compound 383, N-(Benzo[b]thiophen-2-yl)-N-(4,4,4-trifluoro-butyl)-pyridin-3-ylsulfonamide] | – |
| – | 54% | CC(=O)c1c(N(CCC(F)(F)F)S(=O)(=O)c2ccc(C(=O)O)cc2)sc2ccccc12 [Compound 385, N-(3-Acetyl-benzo[b]thiophen-2-yl)-N-(3,3,3-trifluoro-propyl)-4-carboxy-benzenesulfonamide] | – |
| 12.8 nM | 101% | CC(=O)c1c(N(Cc2ccc(F)c(C(F)(F)F)c2)S(=O)(=O)c2ccc(Br)cc2)sc2ccccc12 [Compound 386, N-(3-Acetyl-benzo[b]thiophen-2-yl)-4-bromo-N-(4-fluoro-3-trifluoromethyl-benzyl)benzenesulfonamide] | – |
| 31 nM | 98% | CC(=O)c1c(N(Cc2ccc(F)c(C(F)(F)F)c2)S(=O)(=O)c2ccc(C#N)cc2)sc2ccccc12 [Compound 387, N-(3-Acetyl-benzo[b]thiophen-2-yl)-4-cyano-N-(4-fluoro-3-trifluoromethyl-benzyl)-benzenesulfonamide] | – |
| 10 nM | 97% | CC(=O)c1ccc(S(=O)(=O)N(Cc2ccc(F)c(C(F)(F)F)c2)c2sc3ccccc3c2C(C)(C)O)cc1 [Compound 389, 4-Acetyl-N-(4-fluoro-3-trifluoromethylbenzyl)-N-(3-(1-hydroxy-1-methyl-ethyl)-benzo[b]thiophen-2-yl)-benzenesulfonamide] | – |
| – | 69% | CCN(c1sc2ccccc2c1Br)S(=O)(=O)c1ccc(C(=O)O)cc1 [Compound 390, N-(3-Bromo-benzo[b]thiophen-2-yl)-N-(ethyl)-4-carboxy-benzenesulfonamide] | – |
| 47 nM | 93% | CCCN(c1sc2ccccc2c1Br)S(=O)(=O)c1ccc(C(=O)O)cc1 [Compound 391, N-(3-Bromo-benzo[b]thiophen-2-yl)-N-(propyl)-4-carboxy-benzenesulfonamide] | – |
| 5 nM | 95% | CCCCCCN(c1sc2ccccc2c1Br)S(=O)(=O)c1ccc(C(=O)O)cc1 [Compound 393, N-(3-Bromo-benzo[b]thiophen-2-yl)-N-(hexyl)-4-carboxy-benzenesulfonamide] | – |
| 9 nM | 101% | O=C(O)c1ccc(S(=O)(=O)N(CCCC(F)(F)F)c2sc3ccccc3c2Br)cc1 [Compound 394, N-(3-Bromo-benzo[b]thiophen-2-yl)-N-(4,4,4-trifluoro-butyl)-4-carboxy-benzenesulfonamide] | – |
| 36 nM | 93% | Cc1c(N(CC2CC2)S(=O)(=O)c2ccc(C(=O)O)cc2)sc2ccccc12 [Compound 399, N-(3-Methyl-benzo[b]thiophen-2-yl)-N-(cyclopropylmethyl)-4-carboxy-benzenesulfonamide] | – |
| – | 38% | CCN(c1sc2ccccc2c1C)S(=O)(=O)c1ccc(C(=O)OC)cc1 [Compound 402, N-(3-Methyl-benzo[b]thiophen-2-yl)-N-(ethyl)-4-carbomethoxy-benzenesulfonamide] | – |
| – | 52% | CCN(c1sc2ccccc2c1C)S(=O)(=O)c1ccc(C(=O)O)cc1 [Compound 403, N-(3-Methyl-benzo[b]thiophen-2-yl)-N-(ethyl)-4-carboxy-benzenesulfonamide] | – |
| 36 nM | 95% | COC(=O)c1cccc(CN(c2sc3ccccc3c2Br)S(=O)(=O)c2cccnc2)c1 [Compound 405, N-(3-Bromo-benzo[b]thiophen-2-yl)-N-(3-carbomethoxy-benzyl)-pyridin-3-ylsulfonamide] | – |
| 43 nM | 96% | O=S(=O)(c1cccnc1)N(CCCC(F)(F)F)c1sc2ccccc2c1Br [Compound 407, N-(3-Bromo-benzo[b]thiophen-2-yl)-N-(4,4,4-trifluoro-butyl)-pyridin-3-yl-sulfonamide] | – |
| 122 nM | – | O=S(=O)(c1cccnc1)N(CCCC(F)(F)F)c1sc2ccccc2c1Cl [Compound 408, N-(3-Chloro-benzo[b]thiophen-2-yl)-N-(4,4,4-trifluoro-butyl)-3-pyridin-3-yl-sulfonamide] | 78% |
| 17 nM | 96% | Cc1c(N(CCCC(F)(F)F)S(=O)(=O)c2ccc(C(=O)O)cc2)sc2ccccc12 [Compound 410, N-(3-Methyl-benzo[b]thiophen-2-yl)-N-(4,4,4-trifluoro-butyl)-4-carboxy-benzenesulfonamide] | – |

The remaining lines, values behind:

| Compound | IC50 | inhibition at 0.2 µM | % Inh @ 0.2 (μM) |
| --- | --- | --- | --- |
| Cc1c(N(CCCC(F)(F)F)S(=O)(=O)c2ccc(Oc3cccnc3)cc2)sc2ccccc12 [Compound 373, N-(3-Methyl-benzo[b]thiophen-2-yl)-N-(4,4,4-trifluoro-butyl)-4-(pyridin-3-yloxy)-benzenesulfonamide] | 123 nM | 77% | – |
| COC(=O)c1cccc(S(=O)(=O)N(Cc2ccc(F)c(C(F)(F)F)c2)c2sc3cc(F)ccc3c2C)c1 [Compound 375, N-(6-Fluoro-3-methyl-benzo[b]thiophen-2-yl)-N-(4-fluoro-3-trifluoromethyl-benzyl)-3-carbomethoxy-benzenesulfonamide] | 37 nM | 79% | – |
| CSc1ncccc1S(=O)(=O)N(Cc1ccc(F)c(C(F)(F)F)c1)c1sc2ccccc2c1C [Compound 377, N-(3-Methyl-benzo[b]thiophen-2-yl)-N-(4-fluoro-3-trifluoromethyl-benzyl)-2-thiomethyl-pyridin-3-yl-sulfonamide] | – | – | 65% |
| O=S(=O)(c1ccccc1)N(Cc1ccc(F)c(C(F)(F)F)c1)c1sc2ccccc2c1CN1CCCC1 [Compound 381, N-(4-Fluoro-3-trifluoromethyl-benzyl)-N-(3-pyrrolidin-1-yl-methyl-benzo[b]thiophen-2-yl)-benzenesulfonamide] | – | – | 20% |
| CCCCN(c1cc2ccccc2s1)S(C)(=O)=O [Compound 382, N-(Benzo[b]thiophen-2-yl)-N-(butyl)-methanesulfonamide] | – | 17% | – |
| Cc1c(N(CCCC(F)(F)F)S(=O)(=O)c2ccc3[nH]c(=O)oc3c2)sc2ccccc12 [Compound 384, N-(3-Methyl-benzo[b]thiophen-2-yl)-N-(4,4,4-trifluoro-butyl)-2-oxo-2,3-dihydro-benzooxazol-6-yl-sulfonamide] | 17 nM | 96% | – |
| CC(C)(O)c1c(N(Cc2ccc(F)c(C(F)(F)F)c2)S(=O)(=O)c2ccc(Br)cc2)sc2ccccc12 [Compound 388] | 19 nM | – | 97% |
| CCCCCN(c1sc2ccccc2c1Br)S(=O)(=O)c1ccc(C(=O)O)cc1 [Compound 392, N-(3-Bromo-benzo[b]thiophen-2-yl)-N-(pentyl)-4-carboxy-benzenesulfonamide] | 7 nM | 93% | – |
| CC(C)(C)OCCCN(c1sc2ccccc2c1Br)S(=O)(=O)c1ccc(C(=O)O)cc1 [Compound 397, N-(3-Bromo-benzo[b]thiophen-2-yl)-N-(3-tert-butoxypropyl)-4-carboxy-benzenesulfonamide] | 8 nM | 95% | – |
| Cc1c(N(CCOC(C)(C)C)S(=O)(=O)c2ccc(C(=O)O)cc2)sc2ccccc12 [Compound 401, N-(3-Methyl-benzo[b]thiophen-2-yl)-N-(2-tert-butoxy-ethyl)-4-carboxy-benzenesulfonamide] | 5 nM | 91% | – |
| CCCN(c1sc2ccccc2c1C)S(=O)(=O)c1ccc(C(=O)O)cc1 [Compound 404, N-(3-Methyl-benzo[b]thiophen-2-yl)-N-(propyl)-4-carboxy-benzenesulfonamide] | – | 96% | – |
| COC(=O)c1ccc(CN(c2sc3ccccc3c2Br)S(=O)(=O)c2cccnc2)cc1 [Compound 406, N-(3-Bromo-benzo[b]thiophen-2-yl)-N-(4-carbomethoxy-benzyl)-pyridin-3-ylsulfonamide] | – | 66% | – |
| N#Cc1ccc(S(=O)(=O)N(Cc2ccc(F)c(C(F)(F)F)c2)c2cc3ccccc3s2)cc1 [Compound 411, N-(Benzo[b]thiophen-2-yl)-N-(4-fluoro-3-trifluoromethyl-benzyl)-4-cyano-benzenesulfonamide] | – | 43% | – |
| COC(=O)c1ccc(S(=O)(=O)N(CCCC(F)(F)F)c2sc3cc(F)ccc3c2C)cc1 [Compound 412, N-(6-Fluoro-3-methyl-benzo[b]thiophen-2-yl)-N-(4,4,4-trifluoro-butyl)-4-carbomethoxybenzenesulfonamide] | – | 13% | – |
